Results taken from PubChem BioAssay (NCI).
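Five concentrations, 48 hours, 96-well plates. Here, GI50 denotes the concentration required for 50% inhibition of growth. TGI is the concentration that stops growth completely.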

Assays:
Test in all cases: NCI-60 cell line screen, 48 h
CAKI-1 renal = system: CAKI-1 renal
SR leukemia = system: SR leukemia
HCT-15 colon = system: HCT-15 colon
HS 578T breast = system: HS 578T breast
IGROV1 ovarian = system: IGROV1 ovarian
MALME-3M melanoma = system: MALME-3M melanoma
NCI-H522 lung = system: NCI-H522 lung
SK-OV-3 ovarian = system: SK-OV-3 ovarian
OVCAR-5 ovarian = system: OVCAR-5 ovarian
K-562 leukemia = system: K-562 leukemia
SNB-75 CNS = system: SNB-75 CNS
LOX IMVI melanoma = system: LOX IMVI melanoma
HT29 colon = system: HT29 colon
MCF7 breast = system: MCF7 breast
UACC-257 melanoma = system: UACC-257 melanoma
BT-549 breast = system: BT-549 breast
NCI-H460 lung = system: NCI-H460 lung
A549 NSCLC = system: A549 NSCLC
M14 melanoma = system: M14 melanoma
SW-620 colon = system: SW-620 colon
HCC-2998 colon = system: HCC-2998 colon
PC-3 prostate = system: PC-3 prostate
SN12C renal = system: SN12C renal
KM12 colon = system: KM12 colon
786-0 renal = system: 786-0 renal
OVCAR-8 ovarian = system: OVCAR-8 ovarian
MDA-MB-435 = system: MDA-MB-435
SNB-19 CNS = system: SNB-19 CNS
DU-145 prostate = system: DU-145 prostate

O=C(CCCCCCNC(=O)C(O)(O)C(F)(F)F)Nc1ncc(-c2ccc(Br)cc2)s1
TGI (CAKI-1 renal): 16800 nM | GI50 (SR leukemia): 478 nM | TGI (SR leukemia): > 31800 nM | GI50 (HCT-15 colon): 1430 nM | TGI (HCT-15 colon): 6280 nM | GI50 (HS 578T breast): 1040 nM | TGI (HS 578T breast): > 31800 nM | GI50 (IGROV1 ovarian): 846 nM | TGI (IGROV1 ovarian): 4510 nM | GI50 (MALME-3M melanoma): 913 nM | TGI (MALME-3M melanoma): > 31800 nM | GI50 (NCI-H522 lung): 1450 nM | TGI (NCI-H522 lung): 13800 nM | GI50 (SK-OV-3 ovarian): 1020 nM | TGI (SK-OV-3 ovarian): 3100 nM | GI50 (OVCAR-5 ovarian): 686 nM | TGI (OVCAR-5 ovarian): 5570 nM | GI50 (K-562 leukemia): 442 nM | TGI (K-562 leukemia): > 31800 nM | GI50 (SNB-75 CNS): 1840 nM | TGI (SNB-75 CNS): > 31800 nM | GI50 (LOX IMVI melanoma): 564 nM | TGI (LOX IMVI melanoma): 1360 nM | GI50 (HT29 colon): 735 nM | TGI (HT29 colon): > 31800 nM | GI50 (MCF7 breast): 1300 nM | TGI (MCF7 breast): > 31800 nM | GI50 (UACC-257 melanoma): 1920 nM | TGI (UACC-257 melanoma): > 31800 nM | GI50 (BT-549 breast): 851 nM | TGI (BT-549 breast): > 31800 nM | GI50 (NCI-H460 lung): 890 nM | TGI (NCI-H460 lung): 8200 nM | GI50 (A549 NSCLC): 1600 nM | TGI (A549 NSCLC): > 31800 nM | GI50 (M14 melanoma): 1470 nM | TGI (M14 melanoma): > 31800 nM | GI50 (SW-620 colon): 840 nM | TGI (SW-620 colon): 3100 nM | GI50 (HCC-2998 colon): 1360 nM | TGI (HCC-2998 colon): 4820 nM | GI50 (PC-3 prostate): 957 nM | TGI (PC-3 prostate): > 31800 nM | GI50 (SN12C renal): 1250 nM | TGI (SN12C renal): 18700 nM | GI50 (KM12 colon): 1250 nM | TGI (KM12 colon): 6660 nM | GI50 (786-0 renal): 1000 nM | TGI (786-0 renal): > 31800 nM | GI50 (OVCAR-8 ovarian): 1370 nM | TGI (OVCAR-8 ovarian): > 31800 nM | GI50 (MDA-MB-435): 1040 nM | TGI (MDA-MB-435): > 31800 nM | GI50 (SNB-19 CNS): 1320 nM | TGI (SNB-19 CNS): 6610 nM | GI50 (DU-145 prostate): 1110 nM | TGI (DU-145 prostate): 6410 nM
